What was measured:
Conditions in all cases: average where tested multiple times
[1] = target: T1, BCAT2 (Homo sapiens, UniProt O15382); experiment: BCAT2 in vitro enzyme inhibition assay (resazurin/diaphorase-coupled fluorescence); type: biochemical
T1 sequence (O15382 28-392): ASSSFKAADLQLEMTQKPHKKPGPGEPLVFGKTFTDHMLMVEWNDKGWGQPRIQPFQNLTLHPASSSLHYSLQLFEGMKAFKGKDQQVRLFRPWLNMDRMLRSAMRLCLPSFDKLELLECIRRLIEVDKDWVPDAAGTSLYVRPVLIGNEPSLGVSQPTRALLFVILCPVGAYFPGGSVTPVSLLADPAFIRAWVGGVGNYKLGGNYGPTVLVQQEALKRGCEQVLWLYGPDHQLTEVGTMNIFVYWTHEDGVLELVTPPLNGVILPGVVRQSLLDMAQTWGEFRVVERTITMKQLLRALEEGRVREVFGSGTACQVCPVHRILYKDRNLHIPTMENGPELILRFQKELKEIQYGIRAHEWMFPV
Summary of the method: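 Coupled fluorescence readout: glutamate formed from L-leucine/α-ketoglutarate transamination drives GDH/NAD/diaphorase reduction of resazurin (Ex 540/Em 590). Human BCAT2 was first exposed 1 h at room temperature to compound, top final 100 μM in 3-fold, 10-point series; substrate reaction ran 1 h before SDS quench, in technical duplicate with DMSO max and enzyme-free min controls.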

[2] = target: T2, hBCAT1 (Homo sapiens, UniProt P54687); experiment: BCAT1 in vitro enzyme inhibition assay (resazurin/diaphorase-coupled fluorescence); type: biochemical
T2 sequence (P54687 1-386): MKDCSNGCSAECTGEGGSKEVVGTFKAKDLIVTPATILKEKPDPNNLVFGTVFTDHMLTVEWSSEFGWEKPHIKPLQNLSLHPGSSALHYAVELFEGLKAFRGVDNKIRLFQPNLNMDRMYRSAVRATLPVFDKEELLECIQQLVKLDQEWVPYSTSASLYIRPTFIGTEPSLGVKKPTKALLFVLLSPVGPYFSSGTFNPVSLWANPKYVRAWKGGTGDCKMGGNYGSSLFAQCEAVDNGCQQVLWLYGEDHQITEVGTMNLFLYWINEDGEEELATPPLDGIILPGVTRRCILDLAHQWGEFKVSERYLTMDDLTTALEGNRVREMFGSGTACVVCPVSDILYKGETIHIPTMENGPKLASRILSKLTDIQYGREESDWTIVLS
Summary of the method: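 Ten-point, 3-fold compound series (top final 100 μM, delivered 1:50 from 50× DMSO stocks) tested against hBCAT1. Inhibition detected via diaphorase-coupled resazurin fluorescence, duplicate wells, with values from repeated runs averaged.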

[3] = target: T1, BCAT2; experiment: BCAT2 in vitro cell inhibition using engineered A549 cells (KMV cell assay, 13C6-KMV by LC-MS/MS); type: cell-based; parameters: The result was an engineered A549 cell line that expressed endogenous BCAT2; endogenous in cells; host or cells: A549 cells with MUT and BCAT1 knocked out by CRISPR/CAS9; key to BCAT2 Cell Inhibition: A: less than or equal to 0.100 μM; B: greater than 0.100 and less than or equal to 0.500 μM; C: greater than 0.500 and less than or equal to 1.000 μM; d: greater than 1.000 μM; E: no fit

## CC(C)Cc1nc2cnc(-n3nccn3)cc2n1[C@@H]1CCC[C@H](NC(=O)c2ccc(Cl)s2)C1 [Example 74, 5-chloro-N-((1S,3R)-3-(2-isobutyl-6-(2H-1,2,3-triazol-2-yl)-1H-imidazo[4,5-c]pyridin-1-yl)cyclohexyl)thiophene-2-carboxamide]
[1]
  IC50: ≤ 100 nM
[2]
  IC50: < 500 nM
[3]
  IC50: ≤ 100 nM

## O=C(N[C@H]1CCC[C@@H](n2c(C3CCCOC3)nc3cnc(-c4nc[nH]n4)cc32)C1)c1ncc(Cl)s1 (single isomer, unassigned) [Example 103]
[1]
  IC50: ≤ 100 nM
[2]
  IC50: 500 to 1000 nM
[3]
  IC50: 100 to 500 nM

## O=C(N[C@H]1CCC[C@@H](n2c(OCC(F)(F)F)nc3cnc(-n4nccn4)cc32)C1)c1ncc(Cl)s1 [Example 101, N-((1S,3R)-3-(6-(2H-1,2,3-triazol-2-yl)-2-(2,2,2-trifluoroethoxy)-1H-imidazo[4,5-c]pyridin-1-yl)cyclohexyl)-5-chlorothiazole-2-carboxamide]
[1]
  IC50: 100 to 500 nM
[2]
  IC50: > 5000 nM
[3]
  IC50: > 1000 nM

## O=C(N[C@H]1CCC[C@@H](n2c(C3CCCOC3)nc3cnc(-c4nc[nH]n4)cc32)C1)c1ncc(Cl)s1 (single isomer, unassigned) [Example 102]
[1]
  IC50: ≤ 100 nM
[2]
  IC50: 1000 to 5000 nM
[3]
  IC50: > 1000 nM

## CC(C)Cc1nc2cnc(-c3nc[nH]n3)cc2n1[C@@H]1CCC[C@H](NC(=O)c2ccc(C(F)(F)F)s2)C1 [Example 342, N-((1S,3R)-3-(2-isobutyl-6-(1H-1,2,4-triazol-3-yl)-1H-imidazo[4,5-c]pyridin-1-yl)cyclohexyl)-5-(trifluoromethyl)thiophene-2-carboxamide]
[1]
  IC50: ≤ 100 nM
[2]
  IC50: < 500 nM
[3]
  IC50: ≤ 100 nM

## Cc1coc(-c2cc3c(cn2)nc(-c2ccccc2F)n3C2CC(NC(=O)c3ncc(Cl)s3)CN(C)C2)n1 (stereo not drawn) [Example 130, 5-chloro-N-(5-(2-(2-fluorophenyl)-6-(4-methyloxazol-2-yl)-1H-imidazo[4,5-c]pyridin-1-yl)-1-methylpiperidin-3-yl)thiazole-2-carboxamide]
[1]
  IC50: ≤ 100 nM
[2]
  IC50: 1000 to 5000 nM
[3]
  IC50: 100 to 500 nM

## O=C(N[C@H]1CCC[C@@H](n2c(-c3ccccc3F)nc3cnc(-c4ccncc4)cc32)C1)c1ncc(Cl)s1 [Example 178, 5-chloro-N-((1S,3R)-3-(2-(2-fluorophenyl)-6-(pyridin-4-yl)-1H-imidazo[4,5-c]pyridin-1-yl)cyclohexyl)thiazole-2-carboxamide]
[1]
  IC50: ≤ 100 nM
[2]
  IC50: 500 to 1000 nM
[3]
  IC50: 100 to 500 nM

## Cc1coc(-c2cc3c(cn2)nc(CC(C)C)n3C2CCCC(NC(=O)c3ncc(Cl)s3)C2O)n1 (stereo not drawn) [Example 211, 5-chloro-N-(2-hydroxy-3-(2-isobutyl-6-(4-methyloxazol-2-yl)-1H-imidazo[4,5-c]pyridin-1-yl)cyclohexyl)thiazole-2-carboxamide]
[1]
  IC50: ≤ 100 nM
[2]
  IC50: < 500 nM
[3]
  IC50: 100 to 500 nM

## O=C(N[C@H]1C[C@H](O)C[C@@H](n2c(-c3ccccc3F)nc3cnc(-c4nc[nH]n4)cc32)C1)c1ccc(Cl)s1 [Example 254, 5-chloro-N-((1R,3S,5S)-3-(2-(2-fluorophenyl)-6-(1H-1,2,4-triazol-3-yl)-1H-imidazo[4,5-c]pyridin-1-yl)-5-hydroxycyclohexyl)thiophene-2-carboxamide]
[1]
  IC50: ≤ 100 nM
[2]
  IC50: < 500 nM
[3]
  IC50: ≤ 100 nM

## C#Cc1cnc(C(=O)N[C@H]2CCC[C@@H](n3c(-c4ccccn4)nc4cnc(-n5nccn5)cc43)C2)s1 [Example 20, 5-ethynyl-N-((1S,3R)-3-(2-(pyridin-2-yl)-6-(2H-1,2,3-triazol-2-yl)-1H-imidazo[4,5-c]pyridin-1-yl)cyclohexyl)thiazole-2-carboxamide]
[1]
  IC50: ≤ 100 nM
[2]
  IC50: < 500 nM
[3]
  IC50: ≤ 100 nM

## CC(C)Cc1nc2cnc(-c3cccc(F)n3)cc2n1[C@@H]1CCC[C@H](NC(=O)c2ncc(Cl)s2)C1 [Example 160, 5-chloro-N-((1S,3R)-3-(6-(6-fluoropyridin-2-yl)-2-isobutyl-1H-imidazo[4,5-c]pyridin-1-yl)cyclohexyl)thiazole-2-carboxamide]
[1]
  IC50: ≤ 100 nM
[2]
  IC50: 500 to 1000 nM
[3]
  IC50: 500 to 1000 nM

## CNC(=O)c1cc2nc(-c3ccccc3F)n(C3CCCC(NC(=O)c4ncc(Cl)s4)C3O)c2cn1 (stereo not drawn) [Example 281, 5-chloro-N-(3-(2-(2-fluorophenyl)-6-(methylcarbamoyl)-3H-imidazo[4,5-c]pyridin-3-yl)-2-hydroxycyclohexyl)thiazole-2-carboxamide]
[1]
  IC50: ≤ 100 nM
[2]
  IC50: < 500 nM
[3]
  IC50: ≤ 100 nM

## O=C(N[C@H]1CCC[C@@H](n2c(-c3ncccc3F)nc3cnc(-c4ccn[nH]4)cc32)C1)c1ccc(Cl)s1 [Example 78, 5-chloro-N-((1S,3R)-3-(2-(3-fluoropyridin-2-yl)-6-(1H-pyrazol-5-yl)-1H-imidazo[4,5-c]pyridin-1-yl)cyclohexyl)thiophene-2-carboxamide]
[1]
  IC50: ≤ 100 nM
[2]
  IC50: < 500 nM
[3]
  IC50: ≤ 100 nM

## COc1ccc(-c2nc3cnc(-c4nc[nH]n4)cc3n2[C@@H]2CCC[C@H](NC(=O)c3ccc(Cl)s3)C2)c(F)c1 [Example 351, 5-chloro-N-((1S,3R)-3-(2-(2-fluoro-4-methoxyphenyl)-6-(1H-1,2,4-triazol-3-yl)-1H-imidazo[4,5-c]pyridin-1-yl)cyclohexyl)thiophene-2-carboxamide]
[1]
  IC50: 100 to 500 nM
[2]
  IC50: 1000 to 5000 nM
[3]
  IC50: 500 to 1000 nM

## Cc1cnn(-c2cc3c(cn2)nc(-c2ccccc2F)n3[C@@H]2CCC[C@H](NC(=O)c3ncc(Cl)s3)[C@H]2O)n1 [Example 246, 5-chloro-N-((1S,2R,3R)-3-(2-(2-fluorophenyl)-6-(4-methyl-2H-1,2,3-triazol-2-yl)-1H-imidazo[4,5-c]pyridin-1-yl)-2-hydroxycyclohexyl)thiazole-2-carboxamide]
[1]
  IC50: ≤ 100 nM
[2]
  IC50: < 500 nM
[3]
  IC50: ≤ 100 nM

## O=C(NC1CCCC(n2c(-c3ccccn3)nc3cnc(-c4cnco4)cc32)C1)c1ccc(Br)s1 (stereo not drawn) [Example 3, 5-bromo-N-(3-(6-(oxazol-5-yl)-2-(pyridin-2-yl)-1H-imidazo[4,5-c]pyridin-1-yl)cyclohexyl)thiophene-2-carboxamide]
[1]
  IC50: ≤ 100 nM
[2]
  IC50: 1000 to 5000 nM
[3]
  IC50: 100 to 500 nM

## O=C(N[C@H]1CCC[C@@H](n2c(-c3ccccc3F)nc3cnc(-c4ncco4)cc32)[C@@H]1O)c1ncc(Cl)s1 [Example 248, 5-chloro-N-((1S,2R,3R)-3-(2-(2-fluorophenyl)-6-(oxazol-2-yl)-1H-imidazo[4,5-c]pyridin-1-yl)-2-hydroxycyclohexyl)thiazole-2-carboxamide]
[1]
  IC50: ≤ 100 nM
[2]
  IC50: < 500 nM
[3]
  IC50: ≤ 100 nM

## CO[C@H]1C[C@H](NC(=O)c2ncc(Cl)s2)C[C@H](n2c(-c3ccccc3F)nc3cnc(-c4nc[nH]n4)cc32)C1 (single isomer, unassigned) [Example 218]
[1]
  IC50: ≤ 100 nM
[2]
  IC50: < 500 nM
[3]
  IC50: ≤ 100 nM

## O=C(N[C@H]1CCC[C@@H](n2c(Oc3ccccc3F)nc3cnc(-c4nc[nH]n4)cc32)C1)c1ncc(Cl)s1 [Example 192, 5-chloro-N-((1S,3R)-3-(2-(2-fluorophenoxy)-6-(1H-1,2,4-triazol-3-yl)-1H-imidazo[4,5-c]pyridin-1-yl)cyclohexyl)thiazole-2-carboxamide]
[1]
  IC50: ≤ 100 nM
[2]
  IC50: 1000 to 5000 nM
[3]
  IC50: > 1000 nM

## O=C(N[C@H]1CCC[C@@H](n2c(-c3ccccn3)nc3cnc(-c4nn[nH]n4)cc32)C1)c1ncc(C(F)F)s1 [Example 50, 5-(difluoromethyl)-N-((1S,3R)-3-(2-(pyridin-2-yl)-6-(2H-tetrazol-5-yl)-1H-imidazo[4,5-c]pyridin-1-yl)cyclohexyl)thiazole-2-carboxamide]
[1]
  IC50: ≤ 100 nM
[2]
  IC50: < 500 nM
[3]
  BCAT2 Cell Inhibition: E

From patent US20260159512A1, “BCAT2 INHIBITORS” (AGIOS PHARMACEUTICALS, INC., priority 2021, published 2026)
